Data published in US10696689B2, “Somatostatin modulators and uses thereof” (CRINETICS PHARMACEUTICALS, INC., priority 2018, dated 2020).
pEC50: −log10 of the molar value.

Tests used:
[1] = molecular target: human SST2 receptor (SSTR2) (Homo sapiens (Human), UniProt P30874); test: cAMP assay: inhibition of cAMP via human SST2 receptor in CHO-K1 cells; type: cell-based; details: CHO-K1 cells stably expressing human SSTR2, NKH477 stimulated
From the text: (§1) General overview: All five SSTR subtypes are Gi coupled G-protein coupled receptors (GPCRs) that lead to decreases in intracellular cyclic AMP (cAMP) when activated by an agonist. Therefore, measurement of intracellular cAMP levels can be used to assess whether compounds of the invention are agonists of SSTR subtypes (John Kelly, Troy Stevens, W. Joseph Thompson, and Roland Seifert, Current Protocols in Pharmacology, 2005, 2.2.1-2.2). One example of an intracellular cAMP assay is described below.
(§2) Four days prior to the assay, 5,000 Chinese hamster ovary cells (CHO-K1, ATCC # CCL-61) stably expressing the human somatostatin receptor subtype 2 are plated in each well of a 96-well tissue culture-treated plate in Ham's F12 growth media (ThermoFisher #10-080-CM) supplemented with 10% donor bovine serum (Gemini Bio-Products #100-506), 100 U/mL penicillin; 100 ug/mL streptomycin; 2 mM L-glutamine (Gemini Bio-Products #400-110) and 0.2 mg/mL hygromycin B (GoldBio #31282-04-9). The cells are cultured at 37° C., 5% CO2 and 95% humidity. On the day of the assay, the media is aspirated and the cells are treated with 50 μL of 1.6 μM NKH477 (Sigma # N3290) plus various dilutions of compounds of the invention in assay buffer [1× Hank's Balanced Salt Solution (ThermoFisher # SH3058802), 0.5 mM HEPES pH 7.4, 0.1% bovine serum albumin, 0.2 mM 3-Isobutyl-1-methylxanthine (IBMX, VWR #200002-790)]. The cells are incubated for 20 minutes at 37° C. (the final concentration of the compounds of the invention are typically 0-10,000 nM). The cells are treated with 50 μL of lysis buffer (HRTF cAMP kit, Cisbio). The lysate is transferred to 384-well plates and cAMP detection and visualization antibodies are added and incubated for 1-24 hours at room temperature. The time-resolved fluorescent signal is read with a Tecan M1000Pro multiplate reader. The intracellular cAMP concentrations are calculated by regression to a standard curve and are plotted vs. the concentration of the compounds of the invention and the EC50 of the compounds are calculated using standard methods. All data manipulations are in GraphPad Prism v6.

[2] = Liver microsomal stability assay; type: in vitro ADME; details: human liver microsomes 0.5 mg/mL, 1 μM compound, 37° C.
Experimental: The in vitro stabilities of compounds of interest were determined for various species using pooled male and female human, pooled male Sprague-Dawley rat, pooled male Cynomolgus monkey, and pooled male Beagle dog liver microsomes at microsomal protein concentrations of 0.5 mg/mL. Incubations were carried out in a potassium phosphate buffer (50 mM). The NADPH-generating system was composed of NADP+ (1 mM), magnesium chloride (3 mM), EDTA (1 mM), glucose-6-phosphate (5 mM) and glucose-6-phosphate dehydrogenase (1 Unit/mL) for all experiments. Compounds of interest in DMSO were added to achieve a final incubation concentration of 1 μM (final DMSO content was 0.1% v/v and final acetonitrile content was 0.9%). The final incubation volume was 400 μL. Incubations were conducted at 37° C. for 0, 5, 10, 20, 40 and 60 minutes in a shaking water bath and terminated by removing 50 μL of incubation mixture and adding to 100 μL of ice cold acetonitrile containing internal standard. Following precipitation by centrifugation at 3500 rpm and 4° C. for 30 minutes, compounds of interest and internal standard were analyzed in the resultant supernatant using a multiple reaction monitoring (MRM) LC-MS/MS method. MS conditions were optimized for each analyte.
The following Table (Table D) illustrates human liver microsomal stability of exemplary compounds.

hSSTR2 vs. hSSTR4 = test: Selectivity for inhibition of cAMP via hSSTR2 vs. hSSTR4; type: cell-based, human; details: Table C
From the text: as §1, §2

Sequence of human SST2 receptor (SSTR2) (P30874 whole entry): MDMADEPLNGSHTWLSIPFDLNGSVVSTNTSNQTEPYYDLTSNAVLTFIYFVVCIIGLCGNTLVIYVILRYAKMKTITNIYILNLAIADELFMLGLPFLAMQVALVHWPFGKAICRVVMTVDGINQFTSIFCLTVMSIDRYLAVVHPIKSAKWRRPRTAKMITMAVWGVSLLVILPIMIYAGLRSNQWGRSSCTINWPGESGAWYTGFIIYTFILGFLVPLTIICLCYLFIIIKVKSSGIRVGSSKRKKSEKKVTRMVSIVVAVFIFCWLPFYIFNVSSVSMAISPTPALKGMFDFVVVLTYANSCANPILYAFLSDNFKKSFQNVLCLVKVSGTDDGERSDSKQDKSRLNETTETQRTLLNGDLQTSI

| Structure (SMILES) | pEC50 [1] | HLM t1/2 [2] [h] | hSST4/hSST2 (ratio) (hSSTR2 vs. hSSTR4) |
| --- | --- | --- | --- |
| Nc1ncc(-c2cccc(F)c2)c(N2CC[C@@H]3NCCO[C@H]3C2)c1-c1nc2c(F)cc(F)cc2[nH]1 [Compound 3-3, 4-[(4αS,8αS)-octahydro-1H-pyrido[3,4-b][1,4]oxazin-6-yl]-3-(4,6-difluoro-1H-1,3-benzodiazol-2-yl)-5-(3-fluorophenyl)pyridin-2-amine] | 9.00 to 10.00 | 3.85 | c (c = between 2.5 and 15;) |
| COc1cc(C#N)cc2[nH]c(-c3c(N)ncc(-c4cccc(F)c4)c3N3CC[C@@H]4NCCO[C@H]4C3)nc12 [Compound 3-11, 2-{4-[(4αS, 8αS)-octahydro-1H-pyrido[3,4-b][1,4]oxazin-6-yl]-2-amino-5-(3-fluorophenyl)pyridin-3-yl}-4-methoxy-1H-1,3-benzodiazole-6-carbonitrile] | 9.00 to 10.00 | >11.6 | a (a = above 50,) |
| COc1cc(C#N)cc2[nH]c(-c3c(N)ncc(-c4cc(F)cc(F)c4)c3N3CC[C@@H]4NCCO[C@H]4C3)nc12 [Compound 3-18, 2-{4-[(4αS,8αS)-octahydro-1H-pyrido[3,4-b][1,4]oxazin-6-yl]-2-amino-5-(3,5-difluorophenyl)pyridin-3-yl}-4-methoxy-1H-1,3-benzodiazole-6-carbonitrile] | 9.00 to 10.00 | 1.65 | b (b = bewteen 15 and 50;) |
| N#Cc1cc(F)c2nc(-c3c(N)ncc(-c4cc(F)cc(F)c4)c3N3CC[C@@H]4OCCN[C@H]4C3)[nH]c2c1 [Compound 3-19, 2-{4-[(4αS,8αS)-octahydro-1H-pyrido[3,4-b][1,4]oxazin-6-yl]-2-amino-5-(3,5-difluorophenyl)pyridin-3-yl}-4-fluoro-1H-1,3-benzodiazole-6-carbonitrile] | 9.00 to 10.00 | 5.78 | b (b = bewteen 15 and 50;) |
